Tests used:
Assay in all cases: CCK-8 cell proliferation/cytotoxicity assay
Format in all cases: cell-based
AML12 normal liver cells = details: Mus musculus, AML12, 24 h, 24 h treatment
Procedure: (§1) Cell proliferation was detected using the Cell Counting Kit-8 (CCK-8, Cat. CK04-13; Dojindo Laboratories, Kumamoto, Japan) according to the manufacturer’s instruction. To evaluate cytotoxicity, cells were seeded in a 96-well plate (FHC, 1 × 10^4 cells/well; Caki-2, PLC/PFR.5, and MCF 10A, 1 × 10^4 cells/well; AML12, HepG2, Hep3B, and Huh-7 1.2 × 10^4 cells/well; HeLa, HEK-293, A549, and PC-3, 1.5 × 10^4 cells/well; HT-29, MCF-7, C6, and NE-4C, 2 × 10^4 cells/well). After attachment and stabilization of cells for 24 h, the medium was switched with fresh containing various concentrations (0, 1, 5, 10, 25, 50, and 100 μM) of MBP-11901, and cells were incubated for 22 h. Next, CCK-8 solution was added to each well, and cells were incubated for another 2 h. Absorbance was then measured at 450 nm using a microplate reader (SpectraMax i3, Molecular Devices, San Jose, CA, USA). The IC50 and log IC50 values were calculated using GraphPad Prism (version 5.02; GraphPad PRISM software Inc. San Diego, CA, USA). All experiments were independently performed 3 times. The graph of log IC50 values represents average values.

Hep3B = details: Homo sapiens, 24 h treatment
Procedure: as §1

HepG2 = details: Homo sapiens; HepG2, 24 h treatment
Procedure: as §1

Huh-7 = details: Homo sapiens; Huh-7, 24 h treatment
Procedure: as §1

PLC/PRF5 = details: Homo sapiens, PLC-PRF-5; PLC/PRF5, 24 h treatment
Procedure: as §1

CNC(=O)c1cc(Oc2ccc(NC(=O)Nc3ccc(Cl)c(C(F)(F)F)c3)cc2)ccn1 [sorafenib, reference compound]
IC50 (AML12 normal liver cells): 13.4 ± 2.77 µM
IC50 (Hep3B): 3.64 ± 0.99 µM
IC50 (HepG2): 3.85 ± 0.14 µM
IC50 (Huh-7): 6.47 ± 0.88 µM
IC50 (PLC/PRF5): 6.81 ± 0.76 µM

From PMC9030223, “MBP-11901 Inhibits Tumor Growth of Hepatocellular Carcinoma through Multitargeted Inhibition of Receptor Tyrosine Kinases” (Cancers, 2022)
